{"source": "patent US20260048046A1", "about": "“METHOD FOR IMPROVING GROWTH PERFORMANCE IN FEEDLOT CATTLE” (Elanco US Inc., priority 2022, published 2026)", "test_system": "beef feedlot cattle", "assay": "56-d study: carcass characteristics", "format": "in vivo", "design": "Marbling score, difference from control: scale not given here", "details": "for YG 1, proportion of cattle graded / YG 2, proportion of cattle graded / YG 3, proportion of cattle graded / YG 4, proportion of cattle graded / YG 5, proportion of cattle graded: arithmetic mean; for Adjusted fat thickness / Dressing percentage / KPH fat / Ribeye Area / Yield grade / carcass weight (HCW) / Marbling score: 56 d treatment, steers, LS mean; for Marbling score: 400 Small, 500 Modest, 600 Moderate", "description": "LUB was removed from feed at least 24 h before harvest to comply with the Food Use Authorization (FDA, 2016) granted by the FDA. Cattle were loaded for harvest shortly after collection of final pen live weights and transported to the slaughter facility at a stocking density of approximately 30 steers (i.e., half a pen of 60 steers) in one semi-trailer. The slaughter process was conducted in accordance with USDA requirements and standard slaughter site procedures. Animal/carcass identification was maintained by sequentially recording the ear tag numbers of cattle as they were slaughtered via a sequence number affixed to each carcass by trained personnel from the Beef Carcass Research Center (BCRC; West Texas A&M University, Canyon, TX) and correlating the individual ear tag number to the plant-assigned carcass ID number, which remained intact throughout the carcass data/sample collection phase. Following an industry-standard dressing procedure, each carcass was weighed for determination of HCW.\nCarcass evaluation occurred following the commercial plant's standard chilling period. The carcass quality and yield grade factors, marbling score, ribeye area, and objective 12th rib fat thickness were captured objectively using the VBG2000 camera system. Additionally, adjusted 12th rib fat thickness, kidney, pelvic, and heart (KPH) fat assessment, and other defects (dark cutters, blood splash, etc.) were recorded by trained personnel (BCRC). Skeletal maturity was obtained only on carcasses that were “B” maturity or greater, otherwise, skeletal, lean, and overall maturity and lean color were not obtained.\nCarcass defects (dark cutters, excessive trim) were noted by exception. The objective fat thickness was used to calculate the USDA yield grade. All carcasses were considered to be less than 30 mo of age; therefore, USDA quality grade was determined by using marbling score (USDA, 2019). The severity of the dark cutting condition was indicated by assigning the dark cutting carcasses to ⅓, ⅔, or full dark categories. Dark cutters were not excluded when determining quality grade, however, a summary of the frequency of dark cutter carcasses by treatment group is provided. Carcasses identified as excessively trimmed (greater than approximately 9.1 kg trim) were not excluded from the analysis, however, a summary of the frequency of excessively trimmed carcasses by treatment group is provided.\nThe label claim variable of cumulative NH3 gas emissions over the treatment period normalized by final BW (with d −59 BW as a covariate) for the period and HCW (g of gas kg^−1 of BW or g of gas kg^−1 HCW) was determined by utilizing NH3 gas emissions equations developed from the LUB clinical effectiveness study (FDA-FOI, 2018) and validated using animals of similar BW as described by Brown et al. (2019). The pen was the experimental unit for each outcome. Differences were deemed significant using a two-sided test at Ptrt≤0.05, however, a less stringent significance threshold of Ptrt≤0.10 was used for abnormal health observations. Fixed effect of treatment and random effects of time replicate and block within time replicate were included in the model. Discrete variables were analyzed using a generalized linear mixed model, Proc GLIMMIX SAS version 9.4 unless there were convergence problems due to sparseness of data. A binomial distribution was assumed and a logit link used in the analysis. Contrasts were constructed between the CON group and each non-CON dosage group, and differences were deemed significant at Pdose≤0.05. If convergence problems arose due to sparseness of data, Fisher's exact test (binomial data; Proc FREQ in SAS) or Wilcoxon's rank-sum test (categorical data; Proc NARIWAY in SAS) was used to evaluate differences between the CON group and the non-CON dosage groups. In all cases except for health observations, differences were deemed significant at Ptrt≤0.05 for these primary discrete variables. […]", "key": {"[1]": {"details": "3.5 and 5.5 mg kg^−1 LUB groups, 56 d, Ptrt≤0.05"}, "[2]": {"details": "all LUB groups, 56 d, Ptrt≤0.05"}}, "note": "Marks after values point to notes of the source that are not given here.", "data": [{"smiles": "CC(C)(Cc1ccc(Oc2ncccc2C#N)cc1)NC[C@H](O)COc1ccccc1-c1cccs1", "note": "[LUB, 2-{4-[2-({(2S)-2-Hydroxy-3-[2-(2-thienyl)phenoxy]propyl}amino)-2-methylpropyl]phenoxy}nicotinonitrile]", "values": [{"measurement": "Frequency of dark cutter carcasses", "setting": "1.5 mg kg^−1 LUB group, 56 d", "result": 0.6, "unit": "%"}, {"measurement": "Frequency of excessively trimmed carcasses", "setting": "1.5 mg kg^−1 LUB group, 56 d", "result": 1.4, "unit": "%"}, {"measurement": "YG 1, proportion of cattle graded", "setting": "1.5 mg·kg^−1 DM LUB, 56 d", "result": 5.4, "unit": "%"}, {"measurement": "YG 2, proportion of cattle graded", "setting": "1.5 mg·kg^−1 DM LUB, 56 d", "result": "25.8^x %"}, {"measurement": "YG 3, proportion of cattle graded", "setting": "1.5 mg·kg^−1 DM LUB, 56 d", "result": 49.0, "unit": "%"}, {"measurement": "YG 4, proportion of cattle graded", "setting": "1.5 mg·kg^−1 DM LUB, 56 d", "result": "17.1^y %"}, {"measurement": "YG 5, proportion of cattle graded", "setting": "1.5 mg·kg^−1 DM LUB, 56 d", "result": 2.7, "unit": "%"}, {"measurement": "KPH fat, difference from control", "setting": "1.5 mg·kg^−1 vs. control, 56 d", "result": 0.01, "unit": "%"}, {"measurement": "Marbling score, difference from control", "setting": "1.5 mg·kg^−1 vs. control, 56 d", "result": "−13.0"}, {"measurement": "Marbling score, percent change from Control", "setting": "1.5 mg·kg^−1 vs. control, 56 d", "result": "−2.8", "unit": "%"}, {"measurement": "Ribeye area, difference from control", "setting": "1.5 mg·kg^−1 vs. control, 56 d", "result": 3.3, "unit": "cm^2"}, {"measurement": "Ribeye area, percent change from Control", "setting": "1.5 mg·kg^−1 vs. control, 56 d", "result": 3.5, "unit": "%"}, {"measurement": "carcass weight (HCW), difference from control", "setting": "1.5 mg·kg^−1 vs. control, 56 d", "result": 11.3, "unit": "kg"}, {"measurement": "carcass weight (HCW), percent change from Control", "setting": "1.5 mg·kg^−1 vs. control, 56 d", "result": 2.8, "unit": "%"}, {"measurement": "Frequency of dark cutter carcasses", "setting": "3.5 mg kg^−1 LUB group, 56 d", "result": 0.3, "unit": "%"}, {"measurement": "Frequency of excessively trimmed carcasses", "setting": "3.5 mg kg^−1 LUB group, 56 d", "result": 1.8, "unit": "%"}, {"measurement": "YG 1, proportion of cattle graded", "setting": "3.5 mg·kg^−1 DM LUB, 56 d", "result": 5.5, "unit": "%"}, {"measurement": "YG 2, proportion of cattle graded", "setting": "3.5 mg·kg^−1 DM LUB, 56 d", "result": "31.5^y %"}, {"measurement": "YG 3, proportion of cattle graded", "setting": "3.5 mg·kg^−1 DM LUB, 56 d", "result": 44.0, "unit": "%"}, {"measurement": "YG 4, proportion of cattle graded", "setting": "3.5 mg·kg^−1 DM LUB, 56 d", "result": "17.3^y %"}, {"measurement": "YG 5, proportion of cattle graded", "setting": "3.5 mg·kg^−1 DM LUB, 56 d", "result": 1.7, "unit": "%"}, {"measurement": "KPH fat, difference from control", "setting": "3.5 mg·kg^−1 vs. control, 56 d", "result": 0.01, "unit": "%"}, {"measurement": "Marbling score, difference from control", "setting": "3.5 mg·kg^−1 vs. control, 56 d", "result": "−23.0"}, {"measurement": "Marbling score, percent change from Control", "setting": "3.5 mg·kg^−1 vs. control, 56 d", "result": "−4.9", "unit": "%"}, {"measurement": "Ribeye area, difference from control", "setting": "3.5 mg·kg^−1 vs. control, 56 d", "result": 5.4, "unit": "cm^2"}, {"measurement": "Ribeye area, percent change from Control", "setting": "3.5 mg·kg^−1 vs. control, 56 d", "result": 5.8, "unit": "%"}, {"measurement": "carcass weight (HCW), difference from control", "setting": "3.5 mg·kg^−1 vs. control, 56 d", "result": 15.9, "unit": "kg"}, {"measurement": "carcass weight (HCW), percent change from Control", "setting": "3.5 mg·kg^−1 vs. control, 56 d", "result": 3.9, "unit": "%"}, {"measurement": "Frequency of dark cutter carcasses", "setting": "5.5 mg kg^−1 LUB group, 56 d", "result": 0.1, "unit": "%"}, {"measurement": "Frequency of excessively trimmed carcasses", "setting": "5.5 mg kg^−1 LUB group, 56 d", "result": 1.4, "unit": "%"}, {"measurement": "YG 1, proportion of cattle graded", "setting": "5.5 mg·kg^−1 DM LUB, 56 d", "result": 6.2, "unit": "%"}, {"measurement": "YG 2, proportion of cattle graded", "setting": "5.5 mg·kg^−1 DM LUB, 56 d", "result": "31.6^y %"}, {"measurement": "YG 3, proportion of cattle graded", "setting": "5.5 mg·kg^−1 DM LUB, 56 d", "result": 44.2, "unit": "%"}, {"measurement": "YG 4, proportion of cattle graded", "setting": "5.5 mg·kg^−1 DM LUB, 56 d", "result": "16.0^y %"}, {"measurement": "YG 5, proportion of cattle graded", "setting": "5.5 mg·kg^−1 DM LUB, 56 d", "result": 2.0, "unit": "%"}, {"measurement": "KPH fat, difference from control", "setting": "5.5 mg·kg^−1 vs. control, 56 d", "result": 0.03, "unit": "%"}, {"measurement": "Marbling score, difference from control", "setting": "5.5 mg·kg^−1 vs. control, 56 d", "result": "−27.0"}, {"measurement": "Marbling score, percent change from Control", "setting": "5.5 mg·kg^−1 vs. control, 56 d", "result": "−5.7", "unit": "%"}, {"measurement": "Ribeye area, difference from control", "setting": "5.5 mg·kg^−1 vs. control, 56 d", "result": 5.7, "unit": "cm^2"}, {"measurement": "Ribeye area, percent change from Control", "setting": "5.5 mg·kg^−1 vs. control, 56 d", "result": 6.1, "unit": "%"}, {"measurement": "carcass weight (HCW), difference from control", "setting": "5.5 mg·kg^−1 vs. control, 56 d", "result": 17.1, "unit": "kg"}, {"measurement": "carcass weight (HCW), percent change from Control", "setting": "5.5 mg·kg^−1 vs. control, 56 d", "result": 4.2, "unit": "%"}, {"measurement": "Proportion of carcasses grading Select compared to CON", "setting": "[1]", "result": "increased"}, {"measurement": "Yield grade 2 compared to CON", "setting": "[1]", "result": "increased"}, {"measurement": "Adjusted fat thickness", "setting": "LUB 1.5 mg·kg^−1 DM", "result": 1.53, "unit": "cm"}, {"measurement": "Dressing percentage", "setting": "LUB 1.5 mg·kg^−1 DM", "result": 61.8, "unit": "%"}, {"measurement": "KPH fat", "setting": "LUB 1.5 mg·kg^−1 DM", "result": 2.12, "unit": "%"}, {"measurement": "Ribeye Area", "setting": "LUB 1.5 mg·kg^−1 DM", "result": 97.0, "unit": "cm^2"}, {"measurement": "Yield grade", "setting": "LUB 1.5 mg·kg^−1 DM", "result": 3.14}, {"measurement": "carcass weight (HCW)", "setting": "LUB 1.5 mg·kg^−1 DM", "result": 418.3, "unit": "kg"}, {"measurement": "Marbling score", "setting": "LUB 1.5 mg·kg^−1 DM", "result": 460}, {"measurement": "Adjusted fat thickness", "setting": "LUB 3.5 mg·kg^−1 DM", "result": 1.48, "unit": "cm"}, {"measurement": "Dressing percentage", "setting": "LUB 3.5 mg·kg^−1 DM", "result": 62.1, "unit": "%"}, {"measurement": "KPH fat", "setting": "LUB 3.5 mg·kg^−1 DM", "result": 2.12, "unit": "%"}, {"measurement": "Ribeye Area", "setting": "LUB 3.5 mg·kg^−1 DM", "result": 99.1, "unit": "cm^2"}, {"measurement": "Yield grade", "setting": "LUB 3.5 mg·kg^−1 DM", "result": 3.02}, {"measurement": "carcass weight (HCW)", "setting": "LUB 3.5 mg·kg^−1 DM", "result": 423.9, "unit": "kg"}, {"measurement": "Marbling score", "setting": "LUB 3.5 mg·kg^−1 DM", "result": 450}, {"measurement": "Adjusted fat thickness", "setting": "LUB 5.5 mg·kg^−1 DM", "result": 1.48, "unit": "cm"}, {"measurement": "Dressing percentage", "setting": "LUB 5.5 mg·kg^−1 DM", "result": 62.3, "unit": "%"}, {"measurement": "KPH fat", "setting": "LUB 5.5 mg·kg^−1 DM", "result": 2.14, "unit": "%"}, {"measurement": "Ribeye Area", "setting": "LUB 5.5 mg·kg^−1 DM", "result": 99.4, "unit": "cm^2"}, {"measurement": "Yield grade", "setting": "LUB 5.5 mg·kg^−1 DM", "result": 3.01}, {"measurement": "carcass weight (HCW)", "setting": "LUB 5.5 mg·kg^−1 DM", "result": 425.1, "unit": "kg"}, {"measurement": "Proportion of carcasses grading Upper 2/3 Choice compared to CON", "setting": "[2]", "result": "decreased"}, {"measurement": "Yield grade 4 compared to CON", "setting": "[2]", "result": "decreased"}]}]}
